Results as given in ChEMBL document CHEMBL1154893, “Altaicalarins A-D, cytotoxic bisabolane sesquiterpenes from Ligularia altaica” (J Nat Prod, 2010).
≈ marks a conversion by molar mass, not a printed value.

Key:
MCF7 = test: Cytotoxicity against human MCF7 cells after 48 hrs by SRB assay; details: MCF7, 48 h
A549 = test: Cytotoxicity against human A549 cells after 48 hrs by SRB assay; details: A549, 48 h
[1] = Cytotoxicity against human vincristine resistant KBVIN cells after 48 hrs by SRB assay
KB = test: Cytotoxicity against human KB cells after 48 hrs by SRB assay

SMILES | EC50 (MCF7) [µg/mL] | EC50 (A549) [µg/mL] | EC50 [1] [µg/mL] | EC50 (KB) [µg/mL]
C=C(C(CC(O)C(C)(C)O)OC(=O)/C(C)=C\C)[C@H]1C[C@H]2O[C@@]2(C)C(OC(=O)/C(C)=C\C)[C@H]1OC(C)=O (stereo partly drawn) | > 20 | > 20 | > 20 | > 20
C=C(C(CC1OC1(C)C)OC(=O)/C(C)=C\C)[C@H]1C[C@H]2O[C@@]2(C)C[C@H]1OC(=O)/C(C)=C\C (stereo partly drawn) | > 20 | > 20 | 11.4 (≈ 26.4 µM) | > 20
C=C(c1cc(O)c(C)c(O)c1OC(C)=O)C(CC=C(C)C)OC(=O)/C(C)=C\C (stereo not drawn) [ALTAICALARIN A] | 0.8 (≈ 2.06 µM) | 3.4 (≈ 8.75 µM) | 0.9 (≈ 2.32 µM) | 1 (≈ 2.57 µM)
C=C(c1ccc(C)c(O)c1O)C(CC=C(C)C)OC(=O)/C(C)=C\C (stereo not drawn) [ALTAICALARIN B] | 10.8 (≈ 32.7 µM) | > 20 | 15.9 (≈ 48.1 µM) | 11.8 (≈ 35.7 µM)
C=C(C(CC=C(C)C)OC(=O)/C(C)=C\C)[C@@H]1C[C@@H]2O[C@]2(C)C(=O)[C@H]1OC(C)=O (stereo partly drawn) [ALTAICALARIN C] | 7.7 (≈ 19.7 µM) | 11.4 (≈ 29.2 µM) | 7.6 (≈ 19.5 µM) | 10.4 (≈ 26.6 µM)
C=C(C(CC1OC1(C)C)OC(=O)/C(C)=C\C)[C@@H]1[C@H](OC(=O)/C(C)=C\C)[C@@H]2O[C@]2(C)C(=O)[C@H]1OC(C)=O (stereo partly drawn) [ALTAICALARIN D] | > 20 | > 20 | 18.9 (≈ 37.5 µM) | > 20
COc1cc([C@@H]2c3cc4c(cc3[C@@H](O[C@@H]3O[C@@H]5CO[C@@H](C)O[C@H]5[C@H](O)[C@H]3O)[C@H]3COC(=O)[C@H]23)OCO4)cc(OC)c1O [ETOPOSIDE] | 16.4 (≈ 27.9 µM) | 0.4 (≈ 0.68 µM) | 8.8 (≈ 15 µM) | 3.9 (≈ 6.63 µM)
